Source: paper PMC9148072, “Design, Cytotoxicity and Antiproliferative Activity of 4-Amino-5-methyl-thieno[2,3-d]pyrimidine-6-carboxylates against MFC-7 and MDA-MB-231 Breast Cancer Cell Lines” (Molecules, 2022)
Values after ≈ are worked out from the molar mass of the structure shown. Where two headings read alike, the source gives them in different places.

How the values were obtained:
[1] = test system: MDA-MB-231 cell line; test: MTT antiproliferative assay, MDA-MB-231; format: cell-based, human; conditions: for IC50: MDA-MB-231, 72 h, MTT; for Selective Index MDA-MB-231: SI = IC50 of MCF-10A/IC50 of MDA-MB-231
Experimental: (§1) The compounds were studied for antiproliferative activity by standard MTT dye-reduction assay. Cell cultures from MCF-10A, MCF-7 and MDAMB-231 cell lines were incubated for 72 h in the presence of the tested substances in a wide range of concentrations. At the MCF-10A and MDA-MB-231 cell lines, compound 4 was applied in the range from 0.5 to 100 µg/mL, and all others from 4 to 1000 µg/mL.
(§2) All breast cell lines (MCF-10A, MCF-7 and MDA-MB-231) were purchased from the American Type Culture Collection—ATCC (Manassas, VA, USA). The MCF-7 and MDA-MB-231 were cultivated in Dulbecco’s Modified Eagle’s Medium (DMEM) supplemented with 10% fetal bovine serum (FBS), 1% sodium pyruvate, 1% MEM nonessential amino acids (NEAA) without antibiotics. The nontumorigenic breast cell line (MCF-10A) was cultivated in DMEM medium (Sigma-Aldrich, St. Louis, MO, USA) supplemented with 10% FBS, 1% sodium pyruvate, 1% nonessential amino acids (NEAA), 20 ng/mL human epithelia growth factor (hEGF), 10 μg/mL insulin, and 0.5 μg/mL hydrocortisone without antibiotics. All cell lines were maintained in a humidified atmosphere with 5% CO2 at 37 °C.
(§3) Using the standard MTT dye-reduction assay, described by Mosmann the antiproliferative activity was tested. The method is based on the metabolism of the tetrazolium salt MTT to insoluble formazan. The formazan absorption was registered using a microplate reader at λ = 540 nm. The measured absorption is an indicator of cell viability and metabolic activity. Antiproliferative activities were expressed as IC50 values (concentrations required for 50% inhibition of cell growth), calculated using nonlinear regression analysis (GraphPad Software, San Diego, CA, USA).

[2] = test system: BALB 3T3 cells; test: 3T3 Neutral Red Uptake (NRU) cytotoxicity test; format: cell-based, mouse; conditions: BALB 3T3, 15 to 4000 µg/mL, 24 h
[3] = 3T3 Neutral Red Uptake (NRU) cytotoxicity test; format: cell-based, mouse; conditions: mouse, BALB/3T3 clone A31 cells; for CC50 at 24 h: BALB 3T3, 24 h, no irradiation, read-out: CC50 of Mean ± SD, Cytotoxicity
[4] = test system: MCF-7 cell line; test: MTT antiproliferative assay, MCF-7; format: cell-based, human; conditions: for IC50: Homo sapiens, MCF7, MCF-7, 72 h, MTT; for Selective Index MCF-7: SI = IC50 of MCF-10A/IC50 of MCF-7
Experimental: as §1
The MCF-7 cell line was treated with compounds 2, 3 and 4 at concentrations from 0.5 to 100 µg/mL, and all others from 4 to 1000 µg/mL. The antiproliferative activity expressed in % relative to the negative control (untreated cells accepted as a 100% viable or 0% antiproliferative activity) was determined and shown on Figure 6.
as §2, §3

[5] = test system: MCF-10A cell line; test: MTT antiproliferative assay, MCF-10A; format: cell-based; conditions: Homo sapiens, 72 h
Experimental: as §1
In order to determine antitumor activity, as a reliable model and a control we used the MCF-10A cell line (normal human mammary epithelial cells).
as §2, §3

[6] = test system: BALB 3T3 cells; test: 3T3 NRU phototoxicity test (irradiated); format: cell-based, mouse; conditions: CC50/PC50; PIF < 2 not phototoxic, ≥ 2 and < 5 probable phototoxicity, ≥ 5 phototoxic
From the text: (§4) Some organic compounds exposed to sunlight can be converted into phototoxins as a result of light-induced changes in energy state or degradation of the molecule. The estimation of phototoxicity can serve as an indicator of the photostability of the studied thienopyrimidines when irradiated with UV light and as evidence that their effect on cells is only due to the cytotoxicity and not to phototoxicity. The compounds were studied for cytotoxicity by the 3T3 Neutral Red […] (NRU) phototoxicity test based on a comparison of the cytotoxicity of a chemical when tested in the presence and absence of noncytotoxic exposure to UVA/vis light. The cells were incubated with the test substances at a variable concentration: for compound 4 from 0.5 to 100 μg/mL, and for all the rest from 15 to 4000 μg/mL for 24 h.
(§5) The light source used was a light emitting diode (LED) matrix, an artificial solar light simulator Helios-iO, model LE-9ND55-H—5500K (SERIC Ltd., Tokyo, Japan).
(§6) BALB/3T3 cells were cultured in 75 cm^2 tissue-culture flasks in DMEM, 10% FBS, 2 mM glutamine and antibiotics (penicillin 100 U/mL and streptomycin 100 µg/mL) at 37 °C, 5% CO2 and 90% relative humidity. Cytotoxicity/phototoxicity was assessed by validated BALB/3T3 clone A31 Neutral Red Uptake Assay (3T3 NRU test). Briefly, cells were plated in a 96-well microtiter plate at a density of 1 × 10^4 cells/100 µL/well and were incubated for 24 h. A wide concentration range of the test compounds was applied. In phototoxicity tests, 96-well plates were irradiated with dose 2.4 J/cm^2 and the cells were incubated for additional 24 h. After treatment with Neutral Red medium, washing and treatment with the Ethanol/Acetic acid solution, the absorption was measured on a TECAN microplate reader (TECAN, Grödig, Austria) at wavelength 540 nm.
(§7) Cytotoxicity/phototoxicity were expressed as CC50/PC50 values (concentrations required for 50% cytotoxicity/phototoxicity), calculated using nonlinear regression analysis (GraphPad Software, Prism 8.0.2 (263), San Diego, CA, USA). The CC50 values can be used to calculate the PIF (photoirritancy factor) for each test substance, according to the following formula:PIF = Cytotoxicity (CC50)/Phototoxicity (PC50)(6)

[7] = 3T3 NRU phototoxicity test (irradiated); format: cell-based, mouse; conditions: mouse, BALB/3T3 clone A31 cells; BALB 3T3, irradiated 2.4 J/cm2, then 24 h; read-out: CC50 of Mean ± SD, Phototoxicity
From the text: as §4, §5, §6, §7

[8] = test system: MCF-7; conditions: results published earlier, read-out: IC50 (MCF-7) of lead compounds A and B; cited from earlier work
[9] = test system: MDA-MB-231; conditions: results published earlier, read-out: IC50 (MDA-MB-231) of lead compounds A and B; cited from earlier work
[10] = test system: ABC efflux pumps; set-up: method as in PMID 19783433; conditions: Figure 1; read-out: EC50 in the daunorubicin accumulation assay; cited from earlier work
[11] = test system: FGFR1; conditions: Figure 1; cited from earlier work
[12] = target: Aurora B kinase; set-up: method as in PMID 21778056; conditions: Figure 1; read-out: Aur B IC50; cited from earlier work
[13] = test system: EGFR; set-up: method as in PMID 31051400; conditions: Figure 1; cited from earlier work
[14] = Homo sapiens, read-out: IC50 Antiproliferative Activity MDA-MB-231 in µM (converted)
[15] = Homo sapiens, read-out: IC50 ± SD Antiproliferative Activity MDA-MB-231
[16] = read-out: IC50 Antiproliferative Activity MCF-7 in µM (converted)
[17] = read-out: IC50 ± SD Antiproliferative Activity MCF-7
[18] = read-out: IC50 Antiproliferative Activity MCF-10A (converted)
[19] = read-out: IC50 ± SD Antiproliferative Activity MCF-10A

Row | IC50 [1, 14] | IC50 [1, 15] | IC50 [4, 16] | IC50 [4, 17] | SMILES | CC50 at 24 h [3] | IC50 [5, 18] | IC50 [5, 19] | further results
1 | 370 µM | 116 ± 9.63 µg/mL | 1410 µM | 444 ± 9.2 µg/mL | CCOC(=O)c1sc2nc(-c3ccncc3)nc(N)c2c1C.Cl [Compound 6, Ethyl 4-Amino-5-methyl-2-(pyridin-4-yl)thieno[2,3-d]pyrimidine-6-carboxylate hydrochloride] | > 4000 µg/mL | 1310 µM | 411 ± 5.1 µg/mL | Selective Index MDA-MB-231 [1]: 3.54; cytotoxicity versus BALB 3T3 cells (in words) [2]: not cytotoxic; IC50 at 24 h ([3]; BALB 3T3, converted from µg/mL, read-out: IC50 cytotoxicity against BALB 3T3): > 13000 µM; Selective Index MCF-7 [4]: 0.92; melting point: 259 to 261 °C
2 | 16 µM | 6.43 ± 0.95 µg/mL | 5 µM | 2.01 ± 0.07 µg/mL | CCOC(=O)c1sc2nc(-c3cc(OC)c(OC)c(OC)c3)nc(N)c2c1C [Compound 4, Ethyl 4-Amino-5-methyl-2-(3,4,5-trimethoxyphenyl)thieno [2,3-d]Pyrimidine-6-carboxylate] | 8.37 ± 0.6 µg/mL (≈ 20.7 µM) | 6.8 µM | 2.74 ± 0.13 µg/mL | PIF (Photoirritancy factor) [6]: 0.7; CC50 at 24 h [7]: 11.8 ± 0.8 µg/mL (≈ 29.4 µM)
3 |  |  |  |  | N.N.[Cl][Pt][Cl] [Cisplatin, reference compound] |  |  |  | Selective Index MDA-MB-231 [1]: 25; Selective Index MCF-7 [4]: 2.36
4 |  |  |  |  | CCOC(=O)c1sc2nc(CCn3c(=N)[nH]c4ccccc43)[nH]c(=O)c2c1C [B] |  |  |  | IC50 [8]: 0.21 µM; IC50 [9]: 0.32 µM
5 |  |  |  |  | Nc1nc(SCCc2ccccc2)nc2sc3c(c12)CCCC3 [V] |  |  |  | EC50 [10]: 1.02 µM
6 | 250 µM | 98.2 ± 4.73 µg/mL | 23 µM | 8.58 ± 0.55 µg/mL | CCOC(=O)c1sc2nc(Cc3ccc([N+](=O)[O-])cc3)nc(N)c2c1C [Compound 3, Ethyl 4-Amino-5-methyl-2-(4-nitrobenzyl) Thieno [2,3-d] Pyrimidine-6-carboxylate] | 1160 ± 57.8 µg/mL (≈ 3100 µM) | 440 µM | 165 ± 8.81 µg/mL | IC50 ([1]; read-out: IC50 Antiproliferative Activity MDA-MB-231 in µM (converted)): 260 µM; CC50 at 24 h [7]: 578 ± 58.7 µg/mL (≈ 1550 µM)
7 |  |  |  |  | Oc1cccc(Nc2ncnc3sc(-c4ccccc4)cc23)c1 [VII] |  |  |  | IC50 [11]: 0.16 µM
8 |  |  |  |  | Cc1sc2ncnc(N)c2c1C(=O)Nc1ccc(NC(=O)Nc2ccccc2)cc1 [II] |  |  |  | IC50 [12]: 0.0002 µM
9 |  |  |  |  | C=CC(=O)N1CCc2c(sc3ncnc(NC(CO)c4ccccc4)c23)C1 (centres unmarked) [IX] |  |  |  | IC50 [13]: 0.008 µM
